Entries after “also recorded” stand apart in the source; their conditions may differ.
How the values were obtained:
ActMMP-2 = assay: Solid-phase binding of [125I]-actMMP-2 to immobilized collagens/peptides (microwells); design: species or system human; details: ActMMP-2, 2 ng/well; coated wells; 4°C, 2 h; residual radioactivity; mean ± SD, at least five experiments in triplicate
Protocol: (§1) Human recombinant proMMPs and in vitro activated MMPs were obtained from Invitek and were labeled with the [^125I]-Bolton-Hunter reagent according to the manufacturer's instructions (PerkinElmer, Rodgau, Germany) before the buffer was exchanged for phosphate-buffered saline (PBS) with 0.05% (vol/vol) Tween 20 by gel filtration as described previously. Specific radioactivity for [^125I]-MMPs was 3-9 × 10^4 cpm/ng. Precipitation with 10% (wt/vol) trichloroacetic acid and 200 μg of BSA recovered 96% to 100% of protein-bound radioactivity. Aliquots of labeled MMPs were frozen and stored at -80°C. The activity and integrity were checked by substrate gel zymography using SDS-PAGE and autoradiography with overnight exposure to Biomax MS film (Kodak, Stuttgart, Germany) (Figure 2A).
(§2) Native human CI, CIII and CVI were purified from skin tissue and placenta. The CI single chains α1(I) and α2(I) were obtained and modified as described previously. To prepare defined fragments, 2 mg of α1(I) were dissolved in 1 ml of 70% (vol/vol) formic acid at room temperature, the tubes were flushed with nitrogen for 10 min, and then 2 mg of CB were added. After incubation for 4 h at 37°C, free CB was neutralized and the samples were lyophilized. The peptides CB3, CB6, CB7 and CB8 were separated from the reaction mixture by gel filtration followed by ion-exchange chromatography. The resulting peptides were characterized by amino acid analysis and SDS-PAGE [45, 46]. The CB peptides had the following melting temperatures: CB3, 23.9°C; CB6, 26.7°C; CB7, 28.1°C; and CB8, 28.0°C [31].
(§3) The following collagen analogs and control peptides were synthesized as described previously: (GPO)10, H-Gly-Cys-Hyp-(Gly-Pro-Hyp)10-Gly-Cys-Hyp-Gly-NH2; (GPP)10, H-Gly-Cys-Pro-(Gly-Pro-Pro)10-Gly-Cys-Pro-Gly-NH2; and GAP, H-Gly-Ala-Cys-(Gly-Ala-Pro)5-Gly-Phe-Hyp-Gly-Glu-Arg-(Gly-Ala-Pro)5-NH2. Peptides (POG)10, (PPG)10 and (POG)5 were purchased from Peptide International (Louisville, KY, USA). Spontaneous triple-helix assembly was approved by polarimetry over a 10-cm path length at 1°C/min in 10 mM phosphate buffer, pH 7.4. At 5 mg/ml, midpoints of melting curves occurred at 82.3 ± 1.4°C for (GPO)10 and at 45.8 ± 0.8°C for (GPP)10. […] Graphs were calculated from the primary data using a custom fitting program written by D.A. Slatter (Department of Biochemistry, University of Cambridge, Cambridge, UK [48]) to model different possible transitions. All collagens, CI derivatives and peptides were stored in stock solutions of 2 mg/ml in 150 mM acetic acid at -20°C.
(§4) ProMMP-2 and proMMP-9 or actMMP-2 and actMMP-9 were bound to nitrocellulose and polystyrene-immobilized native collagens, CI chains, CB peptides or structural analogs. Serial dilutions of collagens or CI derivatives in 150 mM acetic acid were dotted at 3 × 3 μl to a nitrocellulose membrane with high protein-binding capacity (GE Healthcare, Munich, Germany). Air-dried membranes were blocked with PBS and 0.3% (vol/vol) Tween 20 overnight at 4°C, washed three times, and incubated with 1 ng/ml [^125I]-pro- and actMMP-2 and pro- and actMMP-9 in PBS and 0.3% (vol/vol) Tween 20 for 2 h at room temperature. Membranes were washed again and air-dried, and bound MMP was monitored by autoradiography. In parallel, polystyrene microtiter plates (Dynex, Chantilly, VA, USA) were coated with collagen proteins and peptides. Here 2 μg/well or 200 ng/well proteins and peptides or BSA as control were immobilized in 100 μl of 50 mM ammonium bicarbonate buffer, pH 9.6, by overnight incubation at 4°C. Immobilization efficacies were 20% to 45% of total proteins. Wells were washed three times with PBS, and nonspecific binding sites were blocked with PBS and 0.05% (vol/vol) Tween 20 for 1 h at room temperature. All incubation steps were performed with 2 ng of [^125I]-MMPs at 4°C for 2 h. […]

ProMMP-2 [1] = assay: DQ-gelatine degradation assay with MMP-2; format: biochemical, human; details: 5 h at 25°C
Protocol: Enzymatic activities of MMPs were studied spectrofluorimetrically by cleavage of fluorogenic substrates in MMP activity buffer within 2 to 5 h. For gelatinases 800 nM MCA-Pro-Leu-Gly-Leu-Dnp-Dap-Ala-Arg-NH2 (λex/em 328/393 nm; Bachem, Bubendorf, Switzerland) or 10 μg/ml DQ-gelatine were used, according to the method described by Knight et al. for collagenases 800 nM MCA-Pro-Cha-Gly-Nva-His-Ala-Dpa-NH2 (λex/em 280/360 nm; Anaspec, San José, CA, USA). In some experiments, proMMP-2 was fully activated in the presence of 1 mM APMA prior to the kinetic measurements. A quantity of 50 ng pro- or actMMP-2 alone or mixed with 10- to 150-fold molar excesses of (GPO)10, GAP, P33-42 or mixtures of (GPO)10 and P33-42, were added to CI-coated, BSA-coated (1 μg/well both) or uncoated wells containing 150 μl of the respective substrate solution. The peptide P33-42 was purchased from the Institute of Biochemistry (Humboldt-University, Berlin, Germany). The influence of CI on MMP-2 enzymatic activity against the quenched fluorescent substrate could be excluded. Background subtraction (measurement without MMPs) was applied to all curves. All experiments were performed with a fluorescence microplate reader (Molecular Devices, Sunnyvale, CA, USA) and black 96-well microtiter plates with a clear bottom (Greiner bio-one, Frickenhausen, Germany).

ProMMP-2 [2] = assay: Solid-phase binding of [125I]-proMMP-2 to immobilized collagens/peptides (microwells); design: species or system human; details: for Binding of [125I]-MMPs: ProMMP-2, 2 ng/well, coated wells, 4°C, 2 h, residual radioactivity, mean ± SD, at least five experiments in triplicate
Protocol: as §1, §2, §3, §4

[3] = Triple-helix melting temperature; format: physicochemical; details: polarimetry; 5 mg/ml; 10 mM phosphate buffer, pH 7.4, 1°C/min
Protocol: as §2, §3

| Substance | Binding of [125I]-MMPs (ActMMP-2) | DQ-gelatine cleavage by proMMP-2 (ProMMP-2 [1]; 50- to 100-fold molar excesses) | DQ-gelatine cleavage by proMMP-2 (ProMMP-2 [1]; 150-fold molar excess) | Binding of [125I]-MMPs (ProMMP-2 [2]) | binding of proMMP vs respective actMMP (ProMMP-2 [2]; proMMP-2 vs actMMP-2 (stated jointly for MMP-2 and MMP-9)) | midpoint of melting curve [3] [°C] | interaction with control peptides (ProMMP-2 [2]; pro- and act-forms of MMP-2 and MMP-9, in words) |
| --- | --- | --- | --- | --- | --- | --- | --- |
| H-Gly-Cys-Hyp-(Gly-Pro-Hyp)10-Gly-Cys-Hyp-Gly-NH2 [(GPO)10, triple-helical Hyp-containing collagen analog] | 6.2 ± 3.1 % of maximum control | significantly enhanced | shift from an active MMP-2 to an enzymatically blocked enzyme; also recorded: reduction of MMP-2 gelatinolytic activity | 13.0 ± 3.5 % of maximum control | two- to sevenfold more strongly | 82.3 ± 1.4 |  |
| H-Gly-Cys-Pro-(Gly-Pro-Pro)10-Gly-Cys-Pro-Gly-NH2 [(GPP)10, Triple-helical Gly-Pro-Pro (GPP)10, devoid of Hyp] | 2.1 ± 0.7 % of maximum control |  |  | 3.6 ± 2.0 % of maximum control |  | 45.8 ± 0.8 | only marginal interactions |
